Assay results taken from US5087702A, “Microbial transformation process for producing an antihypertensive product” (Merck & Co., Inc., priority 1991, dated 1992).
pIC50: −log10 of the molar value.

Target: T1, Angiotensin II (A II) receptor (Oryctolagus cuniculus, UniProt P34976)
T1 construct: membrane preparation derived from rabbit aortae; tissue Pel-Freeze Biologicals; host or cells: frozen rabbit aortae, membrane preparation
T1 sequence (P34976 1-359): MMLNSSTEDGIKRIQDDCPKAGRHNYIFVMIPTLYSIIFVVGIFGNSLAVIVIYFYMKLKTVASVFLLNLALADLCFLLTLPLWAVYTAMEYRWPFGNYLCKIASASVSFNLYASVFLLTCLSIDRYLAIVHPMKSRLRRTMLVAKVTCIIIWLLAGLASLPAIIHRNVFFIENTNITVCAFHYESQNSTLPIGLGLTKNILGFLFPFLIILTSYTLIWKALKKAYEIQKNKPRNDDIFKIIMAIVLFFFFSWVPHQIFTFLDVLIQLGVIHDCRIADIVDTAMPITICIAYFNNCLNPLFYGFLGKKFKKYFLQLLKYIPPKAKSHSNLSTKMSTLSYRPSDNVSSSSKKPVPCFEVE
Assay: Receptor binding assay using rabbit aortae membrane preparation (displacement of 125I-Sar1Ile8-angiotensin II; the "IC50" assay)
Details: membrane preparation derived from rabbit aortae; 37° C., 90 minutes; read-out: inhibitory concentration (IC50) giving 50% displacement of the total specifically bound 125I-Sar1 Ile8-angiotensin II
Protocol: This assay is also referred to herein as the "IC50 " assay.
RECEPTOR BINDING ASSAY USING RABBIT AORTAE MEMBRANE PREPARATION
Three frozen rabbit aortae (obtained from Pel-Freeze Biologicals) were suspended in 5 mM Tris-0.25M Sucrose, pH 7.4 buffer (50 ml) homogenized, and then centifuged. The mixture was filtered through a cheesecloth and the supernatant was centrifuged for 30 minutes at 20,000 rpm at 4° C. The pellet thus obtained was resuspended in 30 ml of 50 mM Tris-5 mM MgCl2 buffer containing 0.2% Bovine Serum Albumin and 0.2 mg/ml Bacitration and the suspension was used for 100 assay tubes. Samples tested for screening were done in duplicate. To the membrane preparation (0.25 ml) there was added ^125 I-Sar^1 Ile^8 -angiotensin II [obtained from New England Nuclear] (10 ul; 20,000 cpm) with or without the test sample and the mixture was incubated at 37° C. for 90 minutes. The mixture was then diluted with ice-cold 50 mM Tris-0.9% NaCl, pH 7.4 (4 ml) and filtered through a glass fiber filter (GF/B Whatman 2.4" diameter). The filter was soaked in scintillation cocktail (10 ml) and counted for radioactivity using Packard 2660 Tricarb liquid scintillation counter. […]

CCCc1nc2c(C)ccnc2n1Cc1ccc(-c2ccccc2-c2nnnn2CC2=CC(O)C(O)C(O)C2=O)cc1 (stereo not shown) [Compound I]
pIC50: > 4.30
